We go through 6 compounds from US9480758B2, “Diagnostic agents selective against metalloproteases” (BRACCO IMAGING S.P.A., priority 2008, dated 2016).

For assay [1], the target named is T1, MMP-2 (Homo sapiens, UniProt P08253).
T1 sequence (P08253 110-660): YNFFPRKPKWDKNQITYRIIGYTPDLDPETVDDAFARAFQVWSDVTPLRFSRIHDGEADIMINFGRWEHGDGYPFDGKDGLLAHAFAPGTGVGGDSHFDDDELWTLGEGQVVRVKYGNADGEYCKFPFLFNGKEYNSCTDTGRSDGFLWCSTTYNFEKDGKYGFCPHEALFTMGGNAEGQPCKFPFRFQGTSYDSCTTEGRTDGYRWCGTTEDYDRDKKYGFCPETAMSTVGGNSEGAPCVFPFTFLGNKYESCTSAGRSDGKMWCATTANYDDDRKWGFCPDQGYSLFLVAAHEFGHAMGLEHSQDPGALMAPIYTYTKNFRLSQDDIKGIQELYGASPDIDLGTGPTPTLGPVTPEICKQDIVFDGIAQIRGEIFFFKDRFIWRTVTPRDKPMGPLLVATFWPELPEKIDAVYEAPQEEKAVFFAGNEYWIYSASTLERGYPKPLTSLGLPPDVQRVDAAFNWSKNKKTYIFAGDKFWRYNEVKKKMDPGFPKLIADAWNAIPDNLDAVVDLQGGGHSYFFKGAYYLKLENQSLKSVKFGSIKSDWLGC
Description: MMP inhibition assay, fluorogenic substrate FS-6. Type of assay: biochemical. The note with it: activated pro-MMP-2 2.9 nM, inhibitor incubated 4 h at 25° C., substrate Mca-Lys-Pro-Leu-Gly-Leu-Dap(Dnp)-Ala-Arg-NH2 2 μM. The arrangement: purchased supplied by Prof; Gillian Murphy (Department of Oncology, University of Cambridge, UK); host or cells: transfected mouse myeloma cells. The procedure: (§1) As reported therein, the inhibitory activity of the compounds of the invention was evaluated on the known fluorogenic substrate (Mca-Lys-Pro-Leu-Gly-Leu-Dpa-Ala-Arg-NH2), shortly referred to as FS-6 (see, as a reference, U. Neumann, Analytical Biochem. 2004, 328, 166-173).
(§2) Recombinant human progelatinase A (pro-MMP-2) and B (pro-MMP-9) from transfected mouse myeloma cells, MMP-16 and MMP-14 catalytic domains were supplied by Prof. Gillian Murphy (Department of Oncology, University of Cambridge, UK). Pro-MMP-1, pro-MMP-8, pro-MMP-3 and pro-MMP-13 were purchased from Calbiochem, MMP-12 was furnished from RDSystems.
(§3) Pro-MMP-3 was activated with trypsin 5 μg/mL for 30 min at 37 C.° followed by soybean trypsin inhibitor (SBTI) 62 μg/mL.
(§4) For assay measurements, the inhibitor stock solutions (DMSO, 100 mM) were further diluted, at 7 different concentrations (0.01 nM-300 μM) for each MMP in the fluorimetric assay buffer (FAB: Tris 50 mM, pH=7.5, NaCl 150 mM, CaCl2 10 mM, Brij 35 0.05% and DMSO 1%). Activated enzyme (final concentration 2.9 nM for MMP-2, 2.7 nM for MMP-9, 1.5 nM for MMP-8, 0.3 nM for MMP-13, 5 nM for MMP-3, 1 nM for MMP-14cd, 15 nM for MMP-16cd and 2.0 nM for MMP-1, 1 nM for MMP12) and inhibitor solutions were incubated in the assay buffer for 4 h at 25° C. After the addition of 200 μM solution of the fluorogenic substrate Mca-Arg-Pro-Lys-Pro-Val-Glu-Nva-Trp-Arg-Lys(Dnp)-NH2 (Sigma) for MMP-3 and Mca-Lys-Pro-Leu-Gly-Leu-Dap(Dnp)-Ala-Arg-NH2 (Bachem) (Neumann, U.; Kubota, H.; Frei, K.; Ganu, V.; Leppert, D. Anal. Biochem. 2004, 328, 166) for all the other enzymes in DMSO (final concentration 2 μM), the hydrolysis was monitored every 15 sec. for 20 min. recording the increase in fluorescence (λex=325 nm, λem=395 nm) using a Molecular Device SpectraMax Gemini XS plate reader. The assays were performed in triplicate in a total volume of 200 μl per well in 96-well microtitre plates (Corning, black, NBS). Control wells lack inhibitor. The MMP inhibition activity was expressed in relative fluorescent units (RFU). Percent of inhibition was calculated from control reactions without the inhibitor. IC50 was determined using the formula: Vi/Vo=1/(1+[I]/IC50), where Vi is the initial velocity of substrate cleavage in the presence of the inhibitor at concentration [I] and Vo is the initial velocity in the absence of the inhibitor. Results were analyzed using SoftMax Pro software and GraFit software.

The target in the next assay is MMP-13 (Homo sapiens, UniProt P45452). The assay can be described thus: MMP inhibition assay, fluorogenic substrate FS-6. Format: biochemical. The note with it: MMP-13 0.3 nM, inhibitor incubated 4 h at 25° C., substrate Mca-Lys-Pro-Leu-Gly-Leu-Dap(Dnp)-Ala-Arg-NH2 2 μM. The method, then:
as §1, §2, §3, §4

The target in a further assay is T2, MMP-12 (Homo sapiens, UniProt P39900).
T2 construct: purchased RDSystems
T2 sequence (P39900 106-470): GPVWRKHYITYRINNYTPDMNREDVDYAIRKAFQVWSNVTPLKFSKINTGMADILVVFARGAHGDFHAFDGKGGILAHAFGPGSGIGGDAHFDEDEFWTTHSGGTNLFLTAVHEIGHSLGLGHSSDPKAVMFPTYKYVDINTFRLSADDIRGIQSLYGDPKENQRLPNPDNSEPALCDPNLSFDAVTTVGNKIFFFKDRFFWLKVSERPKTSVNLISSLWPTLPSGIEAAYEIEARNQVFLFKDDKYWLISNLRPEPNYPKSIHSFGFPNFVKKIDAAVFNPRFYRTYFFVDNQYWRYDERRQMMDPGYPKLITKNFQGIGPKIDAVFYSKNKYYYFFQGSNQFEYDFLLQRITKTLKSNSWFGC
The assay can be described thus: MMP inhibition assay, fluorogenic substrate FS-6. Format: biochemical. The note with it: MMP12 1 nM, inhibitor incubated 4 h at 25° C., substrate Mca-Lys-Pro-Leu-Gly-Leu-Dap(Dnp)-Ala-Arg-NH2 2 μM. The method, then: as §1, §2, §4

The target of a further assay is T3, MMP-16 catalytic domain (Homo sapiens, UniProt P51512).
T3 construct: MMP-16 and MMP-14 catalytic domains were supplied by Prof; Gillian Murphy; purchased supplied by Prof; Gillian Murphy (Department of Oncology, University of Cambridge, UK)
T3 sequence (P51512 120-292 limits assumed): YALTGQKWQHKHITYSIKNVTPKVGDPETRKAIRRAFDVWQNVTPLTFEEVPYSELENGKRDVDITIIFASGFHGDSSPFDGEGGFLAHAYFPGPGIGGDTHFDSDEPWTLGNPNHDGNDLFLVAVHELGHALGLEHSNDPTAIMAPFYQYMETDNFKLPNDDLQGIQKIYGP
The assay can be described thus: MMP inhibition assay, fluorogenic substrate FS-6. Type of assay: biochemical. The note with it: MMP-16cd 15 nM, inhibitor incubated 4 h at 25° C., substrate Mca-Lys-Pro-Leu-Gly-Leu-Dap(Dnp)-Ala-Arg-NH2 2 μM. The method, then: as §1, §2, §4

In the next assay the target is T4, MMP-3 (Homo sapiens, UniProt P08254).
T4 construct: purchased Calbiochem
T4 sequence (P08254 100-477): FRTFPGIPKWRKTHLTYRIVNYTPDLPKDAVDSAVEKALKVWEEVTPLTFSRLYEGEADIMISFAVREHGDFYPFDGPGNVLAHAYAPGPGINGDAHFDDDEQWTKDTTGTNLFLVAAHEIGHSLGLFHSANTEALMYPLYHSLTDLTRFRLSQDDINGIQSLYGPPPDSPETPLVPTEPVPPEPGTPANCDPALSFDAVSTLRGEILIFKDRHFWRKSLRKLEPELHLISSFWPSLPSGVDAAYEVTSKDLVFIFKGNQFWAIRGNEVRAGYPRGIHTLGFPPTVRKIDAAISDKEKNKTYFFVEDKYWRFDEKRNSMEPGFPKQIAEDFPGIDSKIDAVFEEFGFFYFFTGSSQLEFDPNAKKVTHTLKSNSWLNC
Description: MMP inhibition assay, fluorogenic substrate. Format: biochemical. As to conditions: MMP-3 5 nM, inhibitor incubated 4 h at 25° C., substrate Mca-Arg-Pro-Lys-Pro-Val-Glu-Nva-Trp-Arg-Lys(Dnp)-NH2. The method, then:
as §2, §3
as §4, with “The MMP inhibition activity was expressed in relative fluorescent units (RFU).” left out

The next assay concerns the target T5, MMP-8 (Homo sapiens, UniProt P22894).
T5 construct: purchased Calbiochem
Description: MMP inhibition assay, fluorogenic substrate FS-6. Format: biochemical. The note with it: MMP-8 1.5 nM, inhibitor incubated 4 h at 25° C., substrate Mca-Lys-Pro-Leu-Gly-Leu-Dap(Dnp)-Ala-Arg-NH2 2 μM. The method, then: as §1, §2, §3, §4

For another assay, the target named is T6, MMP-9 (Homo sapiens, UniProt P14780).
T6 construct: purchased supplied by Prof; Gillian Murphy (Department of Oncology, University of Cambridge, UK); host or cells: transfected mouse myeloma cells
T6 sequence (P14780 107-707 limits assumed): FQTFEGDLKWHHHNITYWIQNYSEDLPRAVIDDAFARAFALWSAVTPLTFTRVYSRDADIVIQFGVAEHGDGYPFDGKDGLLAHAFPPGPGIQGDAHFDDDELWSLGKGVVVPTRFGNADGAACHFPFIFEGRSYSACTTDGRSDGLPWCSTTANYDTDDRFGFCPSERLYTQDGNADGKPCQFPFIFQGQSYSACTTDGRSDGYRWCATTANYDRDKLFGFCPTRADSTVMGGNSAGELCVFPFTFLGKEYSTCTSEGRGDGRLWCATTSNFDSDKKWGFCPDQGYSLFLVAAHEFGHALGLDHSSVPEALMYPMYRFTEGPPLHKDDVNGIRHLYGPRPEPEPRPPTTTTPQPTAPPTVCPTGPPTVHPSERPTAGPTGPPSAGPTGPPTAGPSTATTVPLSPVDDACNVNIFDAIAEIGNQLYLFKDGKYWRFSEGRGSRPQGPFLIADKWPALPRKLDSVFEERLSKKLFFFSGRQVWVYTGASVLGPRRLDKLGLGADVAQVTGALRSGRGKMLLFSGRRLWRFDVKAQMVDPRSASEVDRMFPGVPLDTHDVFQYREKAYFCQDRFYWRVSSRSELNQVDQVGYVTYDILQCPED
Description: MMP inhibition assay, fluorogenic substrate FS-6. Format: biochemical. As to conditions: MMP-9 2.7 nM, inhibitor incubated 4 h at 25° C., substrate Mca-Lys-Pro-Leu-Gly-Leu-Dap(Dnp)-Ala-Arg-NH2 2 μM. The method, then: as §1, §2, §3, §4

For assay [2], the target named is T1, MMP-2. The note with it: isolated enzyme, fluorogenic substrate FS-1, literature value; cited from earlier work.
For another assay, the target named is MMP-14 (Homo sapiens, UniProt P50281). As to conditions: isolated enzyme, fluorogenic substrate FS-1, literature value; cited from earlier work.
Another assay deals with T7, MMP-14 catalytic domain (Homo sapiens, UniProt P50281).
T7 construct: MMP-16 and MMP-14 catalytic domains were supplied by Prof; Gillian Murphy; purchased supplied by Prof; Gillian Murphy (Department of Oncology, University of Cambridge, UK)
Description: MMP inhibition assay, fluorogenic substrate FS-6. Format: biochemical. As to conditions: MMP-14cd 1 nM, inhibitor incubated 4 h at 25° C., substrate Mca-Lys-Pro-Leu-Gly-Leu-Dap(Dnp)-Ala-Arg-NH2 2 μM. The procedure:
as §1, §2, §4

Read-outs that look alike come from different tables or passages of the source.

T5 sequence (P22894 101-467): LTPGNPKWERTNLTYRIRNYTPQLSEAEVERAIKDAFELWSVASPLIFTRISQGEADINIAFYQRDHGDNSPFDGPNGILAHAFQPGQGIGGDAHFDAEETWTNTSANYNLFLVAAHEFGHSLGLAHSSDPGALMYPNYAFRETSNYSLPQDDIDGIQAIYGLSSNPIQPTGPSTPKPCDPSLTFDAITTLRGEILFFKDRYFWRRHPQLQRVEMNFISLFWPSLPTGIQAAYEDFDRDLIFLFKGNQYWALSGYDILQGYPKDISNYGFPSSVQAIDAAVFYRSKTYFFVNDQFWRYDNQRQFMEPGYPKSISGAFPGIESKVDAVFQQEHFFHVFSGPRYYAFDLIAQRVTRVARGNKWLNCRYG

What is called IC50 is the concentration at which inhibition is half-maximal. Consider `CC[N+]1=C(/C=C/C=C/C=C2/N(CCCCCC(=O)NCC[C@H](C(=O)NO)N(OC(C)C)S(=O)(=O)c3ccc(-c4ccc(OC)cc4)cc3)c3ccc4c(S(=O)(=O)O)cc(S(=O)(=O)O)cc4c3C2(C)C)C(C)(C)c2c1ccc1c(S(=O)(=O)[O-])cc(S(=O)(=O)O)cc21` [Compound 5], for which the IC50 against MMP-2 [1] amounted to 56 ± 8 nM; at MMP-13 it was 82 ± 13 nM.

`COc1ccc(-c2ccc(S(=O)(=O)N(OCCOCCN3CCNCC3)[C@H](CCNC(=O)OCc3ccccc3)C(=O)NO)cc2)cc1` [1j]: the IC50 against MMP-12 was found to be 0.4 ± 0.05 nM; on MMP-16 catalytic domain, 10 ± 1 nM; on MMP-3, 39 ± 3.3 nM; on MMP-8, 3.2 ± 0.2 nM; against MMP-9 it was 1.7 ± 0.14 nM.

With `CC[N+]1=C(/C=C/C=C/C=C2\N(CCCCCC(=O)N3CCN(CCOCCON([C@H](CCNC(=O)OCc4ccccc4)C(=O)O)S(=O)(=O)c4ccc(-c5ccc(OC)cc5)cc4)CC3)c3ccc4c(S(=O)(=O)[O-])cc(S(=O)(=O)O)cc4c3C2(C)C)C(C)(C)c2c1ccc1c(S(=O)(=O)O)cc(S(=O)(=O)O)cc21` [Compound 6a], the half-maximal inhibitory concentration (IC50) at MMP-2 [1] was determined as 73.5 ± 5.7 nM; against MMP-13, 50 ± 4.3 nM.

For the compound `CC(C)ON(C(CCNC(=O)OCc1ccccc1)C(=O)NO)S(=O)(=O)c1ccc(-c2ccccc2)cc1` (centres unmarked) [compound (5b)], the IC50 at MMP-2 [2] was 0.41 nM; at MMP-14, 7.7 nM.

`CC[N+]1=C(/C=C/C=C/C=C2/N(CCCCCC(=O)N3CCN(CCOCCON([C@H](CCNC(=O)OCc4ccccc4)C(=O)NO)S(=O)(=O)c4ccc(-c5ccc(OC)cc5)cc4)CC3)c3ccc4c(S(=O)(=O)O)cc(S(=O)(=O)O)cc4c3C2(C)C)C(C)(C)c2c1ccc1c(S(=O)(=O)[O-])cc(S(=O)(=O)O)cc21` [Compound 6b]: the IC50 was 0.6 ± 0.06 nM against MMP-2 [1]; 0.67 ± 0.06 nM against MMP-12; 30 ± 2.3 nM against MMP-16 catalytic domain; 67 ± 3.4 nM against MMP-14 catalytic domain; 53 ± 4.5 nM on MMP-3; 0.17 ± 0.02 nM against MMP-13. For the same compound, the 50% inhibitory concentration (IC50) on MMP-8 turned out to be 6.5 ± 0.6 nM; at MMP-9, 3.3 ± 0.1 nM.

Consider `CCC(=O)N1CCN(CCOCCON([C@H](CCNC(=O)OCc2ccccc2)C(=O)NO)S(=O)(=O)c2ccc(-c3ccc(OC)cc3)cc2)CC1` [1k], for which the concentration for half-maximal inhibition (IC50) against MMP-2 [1] amounted to 47.9 ± 4.9 nM; against MMP-12 it was 22 ± 4 nM; on MMP-16 catalytic domain, 1260 ± 59 nM; on MMP-14 catalytic domain, 1700 ± 305 nM; on MMP-3, 1990 ± 90 nM; at MMP-13 it was 24.4 ± 2.5 nM. This compound had an IC50 at MMP-9 of 187 ± 11 nM.
